According to the supplement of paper PMC10307832:

Columns and labels:
Test in all cases: relative viability (nuclei count vs DMSO), 5 days (fraction); higher = more cells survive
[1] = tested on: NCI-H358
Summary of the method: (§1)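 Dosing by pin tool came one day after lung cancer cell lines were seeded in 1536-well plates, using either one drug or a fixed anchor-drug dose plus five library-drug doses (not always all listed) in √10 steps. After 5 days, nuclei were counted on 4× images. Relative viability is treated-well nuclei count divided by vehicle-well nuclei count, and values are medians of duplicate plates.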

[2] = tested on: NCI-H1650
Summary of the method: as §1

[3] = tested on: NCI-H2347
Summary of the method: as §1

[4] = tested on: SW 1573
Summary of the method: as §1

[5] = tested on: LXF-289
Summary of the method: as §1

[6] = tested on: PC-14
Summary of the method: as §1

[7] = tested on: NCI-H2342
Summary of the method: as §1

[8] = tested on: NCI-H1563
Summary of the method: as §1

[9] = tested on: SK-LU-1
Summary of the method: as §1

[10] = tested on: LCLC-97TM1
Summary of the method: as §1

[11] = tested on: NCI-H647
Summary of the method: as §1

[12] = tested on: NCI-H1993
Summary of the method: as §1

[13] = tested on: NCI-H2009
Summary of the method: as §1

[14] = tested on: H3255
Summary of the method: as §1

[15] = tested on: HOP-62
Summary of the method: as §1

[16] = tested on: NCI-H2023
Summary of the method: as §1

[17] = tested on: EMC-BAC-2
Summary of the method: as §1

[18] = tested on: NCI-H727
Summary of the method: as §1

[19] = tested on: NCI-H1915
Summary of the method: as §1

[20] = tested on: BEN
Summary of the method: as §1

[21] = tested on: NCI-H661
Summary of the method: as §1

[22] = tested on: NCI-H322M
Summary of the method: as §1

[23] = tested on: NCI-H2085
Summary of the method: as §1

[24] = tested on: NCI-H2126
Summary of the method: as §1

CC(C)Oc1cc(Nc2nc(N[C@@H](C)c3ccc(F)cn3)ncc2Cl)n[nH]1 [AZ23] + COc1cccc2cc(-c3nc([C@H]4CC[C@H](C(=O)O)CC4)n4ncnc(N)c34)[nH]c12 [OSI-027] (partner 0.5 µM)
relative viability ([1]; first compound 0.01 µM): 0.682 | relative viability ([1]; first compound 0.03162 µM): 0.725 | relative viability ([1]; first compound 0.3162 µM): 0.805 | relative viability ([2]; first compound 0.03162 µM): 0.689 | relative viability ([2]; first compound 0.3162 µM): 0.713 | relative viability ([3]; first compound 0.01 µM): 0.298 | relative viability ([3]; first compound 0.03162 µM): 0.262 | relative viability ([3]; first compound 0.3162 µM): 0.389 | relative viability ([4]; first compound 0.01 µM): 0.925 | relative viability ([4]; first compound 0.03162 µM): 0.7 | relative viability ([4]; first compound 0.3162 µM): 0.649 | relative viability ([5]; first compound 0.01 µM): 0.862 | relative viability ([5]; first compound 0.03162 µM): 0.857 | relative viability ([5]; first compound 0.3162 µM): 0.96 | relative viability ([6]; first compound 0.03162 µM): 1.01 | relative viability ([6]; first compound 0.3162 µM): 1.24 | relative viability ([7]; first compound 0.01 µM): 0.702 | relative viability ([7]; first compound 0.03162 µM): 0.593 | relative viability ([7]; first compound 0.3162 µM): 0.569 | relative viability ([8]; first compound 0.01 µM): 0.768 | relative viability ([8]; first compound 0.03162 µM): 0.775 | relative viability ([8]; first compound 0.3162 µM): 0.775 | relative viability ([9]; first compound 0.03162 µM): 0.403 | relative viability ([9]; first compound 0.3162 µM): 0.379 | relative viability ([10]; first compound 0.01 µM): 0.495 | relative viability ([10]; first compound 0.03162 µM): 0.519 | relative viability ([10]; first compound 0.3162 µM): 0.586 | relative viability ([11]; first compound 0.01 µM): 0.765 | relative viability ([11]; first compound 0.03162 µM): 0.745 | relative viability ([11]; first compound 0.3162 µM): 0.789 | relative viability ([12]; first compound 0.01 µM): 0.581 | relative viability ([12]; first compound 0.03162 µM): 0.559 | relative viability ([12]; first compound 0.3162 µM): 0.529 | relative viability ([13]; first compound 0.01 µM): 0.651 | relative viability ([13]; first compound 0.03162 µM): 0.706 | relative viability ([13]; first compound 0.3162 µM): 0.765 | relative viability ([14]; first compound 0.01 µM): 0.55 | relative viability ([14]; first compound 0.03162 µM): 0.618 | relative viability ([14]; first compound 0.3162 µM): 0.635 | relative viability ([15]; first compound 0.01 µM): 0.853 | relative viability ([15]; first compound 0.03162 µM): 0.924 | relative viability ([15]; first compound 0.3162 µM): 0.973 | relative viability ([16]; first compound 0.03162 µM): 0.373 | relative viability ([16]; first compound 0.3162 µM): 0.437 | relative viability ([17]; first compound 0.01 µM): 0.373 | relative viability ([17]; first compound 0.03162 µM): 0.42 | relative viability ([17]; first compound 0.3162 µM): 0.365 | relative viability ([18]; first compound 0.01 µM): 0.496 | relative viability ([18]; first compound 0.03162 µM): 0.558 | relative viability ([18]; first compound 0.3162 µM): 0.605 | relative viability ([19]; first compound 0.01 µM): 0.664 | relative viability ([19]; first compound 0.03162 µM): 0.635 | relative viability ([19]; first compound 0.3162 µM): 0.65 | relative viability ([20]; first compound 0.01 µM): 0.312 | relative viability ([20]; first compound 0.03162 µM): 0.287 | relative viability ([20]; first compound 0.3162 µM): 0.268 | relative viability ([21]; first compound 0.01 µM): 0.666 | relative viability ([21]; first compound 0.03162 µM): 0.766 | relative viability ([21]; first compound 0.3162 µM): 0.755 | relative viability ([22]; first compound 0.03162 µM): 0.594 | relative viability ([22]; first compound 0.3162 µM): 0.521 | relative viability ([23]; first compound 0.01 µM): 0.676 | relative viability ([23]; first compound 0.03162 µM): 0.76 | relative viability ([23]; first compound 0.3162 µM): 0.659 | relative viability ([24]; first compound 0.01 µM): 0.692 | relative viability ([24]; first compound 0.03162 µM): 0.735 | relative viability ([24]; first compound 0.3162 µM): 0.756
